In US8158656B2, “2-indolinone derivatives as multi-target protein kinase inhibitors and histone deacetylase inhibitors” (Shenzhen Chipscreen Biosciences Ltd., priority 2008, dated 2012):

Tests used:
HeLa = assay: Tumor cell proliferation (MTS), HeLa; format: cell-based; details: Homo sapiens, 72 hours
Method: (§1) Measurement of in vivo cell proliferation:
(§2) Tumor cells were trypsinized and plated into 96-well plates at 3,000 per well and incubated in complete medium with 10% FBS for 24 hours. Compounds were added over a final concentration range of 100 μmol/L to 100 nmol/L in 0.1% DMSO and incubated for 72 hours in complete medium. The effects on proliferation were determined by addition of MTS reagent (Promega) according to the instruction, incubation for 2 hours at 37° C. in CO2 incubator, and record the absorbance at 490 nm using an ELISA plate reader.

HDAC7 = biological target: T1, HDAC7 (Homo sapiens, UniProt Q8WUI4); assay: Nur77 reporter assay in HeLa cells; format: cell-based; details: for HDAC7 (Nur77 reporter assay) % Max Resp of CS055 at 3 μM: relative to CS055 at 3 μM; for EC50: 24 hours
T1 construct: endogenous in cells; host or cells: HeLa
T1 sequence (Q8WUI4 1-952): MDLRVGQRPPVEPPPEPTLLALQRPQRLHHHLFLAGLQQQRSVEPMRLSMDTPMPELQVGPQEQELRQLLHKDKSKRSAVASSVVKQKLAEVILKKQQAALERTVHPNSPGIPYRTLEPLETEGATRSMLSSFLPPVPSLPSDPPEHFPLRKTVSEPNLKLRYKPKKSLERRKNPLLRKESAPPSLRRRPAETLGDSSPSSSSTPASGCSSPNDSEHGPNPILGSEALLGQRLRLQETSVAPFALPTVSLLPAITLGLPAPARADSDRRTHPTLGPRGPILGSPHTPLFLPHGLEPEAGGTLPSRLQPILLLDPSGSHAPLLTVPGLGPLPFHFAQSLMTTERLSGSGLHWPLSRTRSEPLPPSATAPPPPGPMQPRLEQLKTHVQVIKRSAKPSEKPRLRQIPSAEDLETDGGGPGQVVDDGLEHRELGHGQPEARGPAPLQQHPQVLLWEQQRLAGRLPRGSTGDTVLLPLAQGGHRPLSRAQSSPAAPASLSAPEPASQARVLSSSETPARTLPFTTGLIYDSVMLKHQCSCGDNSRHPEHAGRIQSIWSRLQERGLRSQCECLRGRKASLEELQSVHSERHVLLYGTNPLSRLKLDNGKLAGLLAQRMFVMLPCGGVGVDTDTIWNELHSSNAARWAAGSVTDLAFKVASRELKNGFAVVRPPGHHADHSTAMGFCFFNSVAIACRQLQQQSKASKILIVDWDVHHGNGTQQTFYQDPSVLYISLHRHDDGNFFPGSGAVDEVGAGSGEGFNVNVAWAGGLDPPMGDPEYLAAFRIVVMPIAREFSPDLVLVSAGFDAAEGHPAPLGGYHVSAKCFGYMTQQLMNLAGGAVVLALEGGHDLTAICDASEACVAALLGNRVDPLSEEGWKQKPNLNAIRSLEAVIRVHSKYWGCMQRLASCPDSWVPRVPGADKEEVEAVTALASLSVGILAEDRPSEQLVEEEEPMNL
Method: (§3) HDAC subtype selectivity inhibition assay of tested compounds was carried out by several reporter gene assays experiments. Briefly, HeLa cells were seeded in 96-well plates the day before transfection to give a confluence of 50-80%. Cells were transfected with one of reporter gene plasmid containing a promoter sequence or response element upstream of a luciferase gene construct using FuGene6 transfection reagent according to the manufacturer's instruction (Roche). The promoters or response elements including p21-promoter, gdf11-promoter, MEF-binding element (MEF2), Nur77-promoter were fused upstream to the luciferase gene reporter construct. For normalizing the transfection efficiency, a GFP expression plasmid was cotransfected. Cells were allowed to express protein for 24 hours followed by addition of individual compounds or the vehicle (DMSO). 24 hours later the cells were harvested, and the luciferase assay and GFP assay were performed using corresponding assay kits according to the manufacturer's instructions (Promega).

HUVEC cells = assay: VEGF ligand-dependent cell proliferation; format: cell-based; details: Homo sapiens, VEGF 165 50 ng/ml, 72 hours, MTS
Method: VEGF dependent cell proliferation:
HUVEC cells were plated into 96-well plates at 6,000 per well and incubated with serum-free medium for 2 hours. Compounds and VEGF 165 (50 ng/ml) were added and incubated for 72 hours in serum-free medium. The effects on proliferation were determined by addition of MTS reagent (Promega) according to the instruction, incubation for 2 hours at 37° C. in CO2 incubator, and record the absorbance at 490 nm using an ELISA plate reader.

total HDAC enzyme = assay: Total HDAC enzyme activity, HDAC Fluorimetric Assay (HeLa extract); format: biochemical, human
Method: Measurement of in vitro inhibition of total HDAC enzyme activity:
The in vitro inhibition of total HDAC enzyme was determined by HDAC Fluorimetric Assay/Drug Discovery Kit (BIOMOL) according to manufacture's instruction. • 1. Add Assay buffer, diluted trichostatin A or test inhibitor to appropriate wells of the microtiter plate. Following table lists examples of various assay types and the additions required for each test.
• 2. Add diluted HeLa extract or other HDAC sample to all wells except those that are to be “No Enzyme Controls” (Blank). • 3. Allow diluted Fluor de Lys™ Substrate and the samples in the microtiter plate to equilibrate to assay temperature (25° C.). • 4. Initiate HDAC reactions by adding diluted substrate (25 μl) to each well and mixing thoroughly. • 5. Allow HDAC reactions to proceed for desired length of time and then stop them by addition of Fluor de Lys™ Developer (50 μl). Incubate plate at room temperature (25° C.) for 10-15 min. • 6. Read samples in a microtiter-plate reading fluorimeter capable of excitation at a wavelength in the range 350-380 nm and detection of emitted light in the range 440-460 nm. Measurement of in vivo inhibition of HDAC subtype activity: […]

Ramos = assay: Tumor cell proliferation (MTS), Ramos; format: cell-based; details: Homo sapiens, 72 hours
Method: as §1, §2

HDAC3 = biological target: T2, HDAC3 (Homo sapiens, UniProt O15379); assay: GDF11 reporter assay in HeLa cells; format: cell-based; details: for HDAC3 (GDF11 reporter assay) % Max Resp of CS055 at 3 μM: relative to CS055 at 3 μM; for EC50: 24 hours
T2 construct: endogenous in cells; host or cells: HeLa
T2 sequence (O15379 whole entry): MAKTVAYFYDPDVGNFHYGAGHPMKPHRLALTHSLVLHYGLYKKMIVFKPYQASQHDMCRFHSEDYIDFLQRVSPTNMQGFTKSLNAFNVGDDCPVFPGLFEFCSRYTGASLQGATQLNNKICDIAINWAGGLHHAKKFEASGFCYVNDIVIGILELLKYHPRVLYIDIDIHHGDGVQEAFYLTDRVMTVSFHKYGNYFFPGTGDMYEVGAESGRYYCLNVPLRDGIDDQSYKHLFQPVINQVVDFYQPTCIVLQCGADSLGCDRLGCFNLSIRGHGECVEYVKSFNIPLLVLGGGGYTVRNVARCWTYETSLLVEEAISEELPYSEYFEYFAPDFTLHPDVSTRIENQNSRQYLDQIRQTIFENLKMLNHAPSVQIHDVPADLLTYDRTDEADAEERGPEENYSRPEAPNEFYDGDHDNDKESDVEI
T2 sequence (Q9Y618 whole entry partner): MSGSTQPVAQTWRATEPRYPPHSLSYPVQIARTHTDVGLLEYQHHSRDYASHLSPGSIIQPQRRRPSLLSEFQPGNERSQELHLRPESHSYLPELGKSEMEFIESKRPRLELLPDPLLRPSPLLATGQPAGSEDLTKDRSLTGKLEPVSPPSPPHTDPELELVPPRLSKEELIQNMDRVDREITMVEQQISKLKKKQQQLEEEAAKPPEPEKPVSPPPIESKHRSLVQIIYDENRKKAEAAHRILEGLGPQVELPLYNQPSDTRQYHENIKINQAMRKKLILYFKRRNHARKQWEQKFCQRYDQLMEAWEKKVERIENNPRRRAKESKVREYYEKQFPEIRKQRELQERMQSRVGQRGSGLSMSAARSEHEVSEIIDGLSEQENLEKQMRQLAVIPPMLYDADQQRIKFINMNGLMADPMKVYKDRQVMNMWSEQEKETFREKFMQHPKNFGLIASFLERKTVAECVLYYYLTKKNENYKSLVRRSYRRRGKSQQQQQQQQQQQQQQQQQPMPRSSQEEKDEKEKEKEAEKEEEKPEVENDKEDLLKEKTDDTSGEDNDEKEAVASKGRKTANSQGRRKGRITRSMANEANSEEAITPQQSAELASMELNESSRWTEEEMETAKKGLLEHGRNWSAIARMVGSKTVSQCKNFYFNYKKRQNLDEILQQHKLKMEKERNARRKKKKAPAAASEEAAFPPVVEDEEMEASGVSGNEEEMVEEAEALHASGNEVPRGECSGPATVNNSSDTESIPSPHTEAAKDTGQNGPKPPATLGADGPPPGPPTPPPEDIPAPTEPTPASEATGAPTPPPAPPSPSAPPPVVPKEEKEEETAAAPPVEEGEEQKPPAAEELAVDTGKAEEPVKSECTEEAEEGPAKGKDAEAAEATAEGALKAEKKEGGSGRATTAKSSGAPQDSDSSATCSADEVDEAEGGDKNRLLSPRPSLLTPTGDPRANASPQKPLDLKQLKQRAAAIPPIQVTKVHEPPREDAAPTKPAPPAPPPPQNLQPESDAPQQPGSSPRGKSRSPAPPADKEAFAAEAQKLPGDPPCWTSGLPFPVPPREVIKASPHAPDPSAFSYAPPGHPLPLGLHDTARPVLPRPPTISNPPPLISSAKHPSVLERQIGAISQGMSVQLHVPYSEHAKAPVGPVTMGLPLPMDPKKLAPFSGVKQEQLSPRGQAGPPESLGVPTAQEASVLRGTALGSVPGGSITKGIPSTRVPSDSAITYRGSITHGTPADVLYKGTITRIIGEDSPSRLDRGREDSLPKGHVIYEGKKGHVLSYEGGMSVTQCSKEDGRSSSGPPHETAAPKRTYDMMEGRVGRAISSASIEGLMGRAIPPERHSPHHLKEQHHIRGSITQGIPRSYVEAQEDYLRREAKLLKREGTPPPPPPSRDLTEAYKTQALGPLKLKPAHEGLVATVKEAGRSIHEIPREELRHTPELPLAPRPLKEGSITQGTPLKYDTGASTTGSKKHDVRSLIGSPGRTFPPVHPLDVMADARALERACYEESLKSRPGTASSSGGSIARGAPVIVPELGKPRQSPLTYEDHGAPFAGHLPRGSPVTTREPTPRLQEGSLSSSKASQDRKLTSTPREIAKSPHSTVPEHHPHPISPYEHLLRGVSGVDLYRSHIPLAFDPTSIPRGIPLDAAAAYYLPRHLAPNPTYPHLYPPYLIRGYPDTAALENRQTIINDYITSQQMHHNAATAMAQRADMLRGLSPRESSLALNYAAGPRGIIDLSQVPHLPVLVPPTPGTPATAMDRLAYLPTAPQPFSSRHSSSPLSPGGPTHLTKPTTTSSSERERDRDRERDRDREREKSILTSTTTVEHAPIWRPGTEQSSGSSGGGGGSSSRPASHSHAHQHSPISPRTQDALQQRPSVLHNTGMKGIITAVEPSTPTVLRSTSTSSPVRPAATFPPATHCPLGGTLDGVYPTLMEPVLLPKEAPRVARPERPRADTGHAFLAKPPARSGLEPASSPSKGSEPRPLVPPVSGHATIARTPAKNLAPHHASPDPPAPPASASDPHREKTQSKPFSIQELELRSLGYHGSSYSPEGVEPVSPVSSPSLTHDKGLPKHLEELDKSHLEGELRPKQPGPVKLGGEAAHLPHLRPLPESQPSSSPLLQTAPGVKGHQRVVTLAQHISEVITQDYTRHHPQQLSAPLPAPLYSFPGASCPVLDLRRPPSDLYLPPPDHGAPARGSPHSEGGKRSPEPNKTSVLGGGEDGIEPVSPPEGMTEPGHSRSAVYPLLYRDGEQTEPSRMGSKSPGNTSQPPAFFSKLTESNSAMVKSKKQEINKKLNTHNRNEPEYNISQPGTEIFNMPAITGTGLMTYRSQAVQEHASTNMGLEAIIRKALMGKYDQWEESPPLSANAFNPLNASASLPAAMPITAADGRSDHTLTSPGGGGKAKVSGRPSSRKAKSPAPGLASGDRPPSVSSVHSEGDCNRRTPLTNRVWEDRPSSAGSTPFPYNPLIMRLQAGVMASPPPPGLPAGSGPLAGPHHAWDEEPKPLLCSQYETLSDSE
Method: as §3

Compound: Cc1[nH]c(/C=N/N=C2\C(=O)Nc3ccc(F)cc32)c(C)c1C(=O)NCCCCNc1ccc(C(=O)Nc2ccc(F)cc2N)cn1 [Example 20, N-(2-amino-4-fluorophenyl)-6-(4-(2-(((5-fluoro-2-oxoindolin-3-ylidene)-hydrazono)methyl)-3,5-dimethyl-1H-pyrrole-4-carboxamido)butylamino)nicotinamide]
- GI50 (HeLa): > 60 µM
- HDAC7 (Nur77 reporter assay) % Max Resp of CS055 at 3 μM (HDAC7): 1.0%
- GI50 (HUVEC cells): 330 nM
- % inhibition of total HDAC enzyme activity at 30 μM (total HDAC enzyme): 3.50%
- GI50 (Ramos): > 60 µM
- HDAC3 (GDF11 reporter assay) % Max Resp of CS055 at 3 μM (HDAC3): 4.1%

Compound: Cc1[nH]c(/C=N/N=C2\C(=O)Nc3ccc(F)cc32)c(C)c1C(=O)NCCNc1ccc(C(=O)Nc2ccc(F)cc2N)cn1 [Example 14, N-(2-amino-4-fluorophenyl)-6-(2-(2-(((5-fluoro-2-oxoindolin-3-ylidene)-hydrazono)methyl)-3,5-dimethyl-1H-pyrrole-4-carboxamido)ethylamino)nicotinamide]
- GI50 (HeLa): > 60 µM
- HDAC7 (Nur77 reporter assay) % Max Resp of CS055 at 3 μM (HDAC7): 4.5%
- GI50 (HUVEC cells): 201 nM
- % inhibition of total HDAC enzyme activity at 30 μM (total HDAC enzyme): 1.00%
- GI50 (Ramos): > 60 µM
- HDAC3 (GDF11 reporter assay) % Max Resp of CS055 at 3 μM (HDAC3): 2.0%

Compound: Cc1[nH]c(/C=N/N=C2\C(=O)Nc3ccc(F)cc32)c(C)c1C(=O)NCCCNc1ccc(C(=O)Nc2ccccc2N)cn1 [Example 7, N-(2-aminophenyl)-6-(3-(2-(((5-fluoro-2-oxoindolin-3-ylidene)hydrazono)-methyl)-3,5-dimethyl-1H-pyrrole-4-carboxamido)propylamino)nicotinamide]
- GI50 (HeLa): > 60 µM
- HDAC7 (Nur77 reporter assay) % Max Resp of CS055 at 3 μM (HDAC7): 12.4%
- GI50 (HUVEC cells): 387 nM
- % inhibition of total HDAC enzyme activity at 30 μM (total HDAC enzyme): 7.80%
- GI50 (Ramos): > 60 µM
- HDAC3 (GDF11 reporter assay) % Max Resp of CS055 at 3 μM (HDAC3): 6.3%

Compound: Cc1[nH]c(/C=N/N=C2\C(=O)Nc3ccc(F)cc32)c(C)c1C(=O)NCCCNc1ccc(C(=O)Nc2ccc(F)cc2N)cn1 [Example 17, N-(2-amino-4-fluorophenyl)-6-(3-(2-(((5-fluoro-2-oxoindolin-3-ylidene)-hydrazono)methyl)-3,5-dimethyl-1H-pyrrole-4-carboxamido)propylamino)nicotinamide]
- GI50 (HeLa): > 60 µM
- HDAC7 (Nur77 reporter assay) % Max Resp of CS055 at 3 μM (HDAC7): 3.5%
- GI50 (HUVEC cells): 460 nM
- % inhibition of total HDAC enzyme activity at 30 μM (total HDAC enzyme): 4.00%
- GI50 (Ramos): > 60 µM
- HDAC3 (GDF11 reporter assay) % Max Resp of CS055 at 3 μM (HDAC3): 3.8%

Compound: Cc1[nH]c(/C=C2\C(=O)Nc3ccc(F)cc32)c(C)c1C(=O)NCCNc1ccc(C(=O)Nc2ccccc2N)cn1 [Example 3, (Z)-N-(2-aminophenyl)-6-(2-(2-((5-fluoro-2-oxoindolin-3-ylidene)methyl)-3,5-dimethyl-1H-pyrrole-4-carboxamido)ethylamino)nicotinamide]
- GI50 (HeLa): > 60 µM
- EC50 (HDAC7): 2900 nM
- HDAC7 (Nur77 reporter assay) % Max Resp of CS055 at 3 μM (HDAC7): 113.5%
- GI50 (HUVEC cells): < 1 nM
- % inhibition of total HDAC enzyme activity at 30 μM (total HDAC enzyme): 9.20%
- GI50 (Ramos): > 60 µM
- EC50 (HDAC3): 1900 nM
- HDAC3 (GDF11 reporter assay) % Max Resp of CS055 at 3 μM (HDAC3): 106.2%

Compound: Cc1[nH]c(/C=C2\C(=O)Nc3ccc(F)cc32)c(C)c1C(=O)NCCCCNc1ccc(C(=O)Nc2ccccc2N)cn1 [Example 9, (Z)-N-(2-aminophenyl)-6-(4-(2-((5-fluoro-2-oxoindolin-3-ylidene)methyl)-3,5-dimethyl-1H-pyrrole-4-carboxamido)butylamino)nicotinamide]
- GI50 (HeLa): > 60 µM
- EC50 (HDAC7): 13200 nM
- HDAC7 (Nur77 reporter assay) % Max Resp of CS055 at 3 μM (HDAC7): 88.7%
- GI50 (HUVEC cells): 12 nM
- % inhibition of total HDAC enzyme activity at 30 μM (total HDAC enzyme): 6.30%
- GI50 (Ramos): > 60 µM
- EC50 (HDAC3): 15500 nM
- HDAC3 (GDF11 reporter assay) % Max Resp of CS055 at 3 μM (HDAC3): 81.4%

Compound: Cc1[nH]c(/C=C2\C(=O)Nc3ccc(F)cc32)c(C)c1C(=O)NCCCCNc1ccc(C(=O)Nc2ccc(F)cc2N)cn1 [Example 19, (Z)-N-(2-amino-4-fluorophenyl)-6-(4-(2-((5-fluoro-2-oxoindolin-3-ylidene)-methyl)-3,5-dimethyl-1H-pyrrole-4-carboxamido)butylamino)nicotinamide]
- GI50 (HeLa): > 60 µM
- HDAC7 (Nur77 reporter assay) % Max Resp of CS055 at 3 μM (HDAC7): 6.0%
- GI50 (HUVEC cells): 81 nM
- % inhibition of total HDAC enzyme activity at 30 μM (total HDAC enzyme): 7.30%
- GI50 (Ramos): > 60 µM
- HDAC3 (GDF11 reporter assay) % Max Resp of CS055 at 3 μM (HDAC3): 2.0%

Compound: Cc1[nH]c(/C=C2\C(=O)Nc3ccc(F)cc32)c(C)c1C(=O)NCCCNc1ccc(C(=O)Nc2ccc(F)cc2N)cn1 [Example 16, (Z)-N-(2-amino-4-fluorophenyl)-6-(3-(2-((5-fluoro-2-oxoindolin-3-ylidene)-methyl)-3,5-dimethyl-1H-pyrrole-4-carboxamido)propylamino)nicotinamide]
- GI50 (HeLa): > 60 µM
- HDAC7 (Nur77 reporter assay) % Max Resp of CS055 at 3 μM (HDAC7): 6.5%
- GI50 (HUVEC cells): 39 nM
- % inhibition of total HDAC enzyme activity at 30 μM (total HDAC enzyme): 6.70%
- GI50 (Ramos): > 60 µM
- HDAC3 (GDF11 reporter assay) % Max Resp of CS055 at 3 μM (HDAC3): 1.8%

Compound: Cc1[nH]c(/C=C2\C(=O)Nc3ccc(F)cc32)c(C)c1C(=O)NCCCNc1ccc(C(=O)Nc2ccccc2N)cn1 [Example 6, (Z)-N-(2-aminophenyl)-6-(3-(2-((5-fluoro-2-oxoindolin-3-ylidene)methyl)-3,5-dimethyl-1H-pyrrole-4-carboxamido)propylamino)nicotinamide]
- GI50 (HeLa): > 60 µM
- EC50 (HDAC7): 2500 nM
- HDAC7 (Nur77 reporter assay) % Max Resp of CS055 at 3 μM (HDAC7): 88.1%
- GI50 (HUVEC cells): 9 nM
- % inhibition of total HDAC enzyme activity at 30 μM (total HDAC enzyme): 12.50%
- GI50 (Ramos): > 60 µM
- EC50 (HDAC3): 1000 nM
- HDAC3 (GDF11 reporter assay) % Max Resp of CS055 at 3 μM (HDAC3): 75.6%

Compound: Cc1[nH]c(/C=N/N=C2\C(=O)Nc3ccc(F)cc32)c(C)c1C(=O)NCCNc1ccc(C(=O)Nc2ccccc2N)cn1 [Example 4, N-(2-aminophenyl)-6-(2-(2-(((5-fluoro-2-oxoindolin-3-ylidene)hydrazono)-methyl)-3,5-dimethyl-1H-pyrrole-4-carboxamido)ethylamino)nicotinamide]
- GI50 (HeLa): > 60 µM
- HDAC7 (Nur77 reporter assay) % Max Resp of CS055 at 3 μM (HDAC7): 3.9%
- GI50 (HUVEC cells): 1 nM
- % inhibition of total HDAC enzyme activity at 30 μM (total HDAC enzyme): 6.90%
- GI50 (Ramos): > 60 µM
- HDAC3 (GDF11 reporter assay) % Max Resp of CS055 at 3 μM (HDAC3): 2.4%
